Laboratory results published in ChEMBL document CHEMBL1201862, “PubChem BioAssay data set” (2004).
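48-hour exposure; five concentrations; linearly interpolated endpoints. GI50 is the concentration that inhibits growth by half.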 Calls of active or inactive are those of the source. No stated cut-off is given here; in the data, active = GI50 up to about 1.1 µM and inactive = higher.

Assays:
Assay in all cases: DTP human tumour cell line panel, 48 h
CCRF-CEM = tested on: CCRF-CEM
SNB-19 = tested on: SNB-19
SF-295 = tested on: SF-295
A549 = tested on: A549
HCT-116 = tested on: HCT-116
Malme-3M = tested on: Malme-3M
SN12C = tested on: SN12C
SK-MEL-2 = tested on: SK-MEL-2
UACC-257 = tested on: UACC-257
LOX IMVI = tested on: LOX IMVI
OVCAR-4 = tested on: OVCAR-4
HOP-92 = tested on: HOP-92
HT-29 = tested on: HT-29
U-251 = tested on: U-251
KM12 = tested on: KM12

Measured: GI50

CC1(Br)S(=O)(=O)OCCOS1(=O)=O
inactive: CCRF-CEM > 100 µM | SNB-19 > 100 µM | SF-295 > 100 µM | A549 > 100 µM | HCT-116 > 100 µM | Malme-3M > 100 µM | SN12C > 100 µM | SK-MEL-2 > 100 µM | UACC-257 > 100 µM | LOX IMVI > 100 µM | OVCAR-4 > 100 µM | HOP-92 > 100 µM | HT-29 > 100 µM | U-251 > 100 µM

COc1ccc2c(c1)C(=O)C1CC(=O)CCC21 (stereo not given)
inactive: CCRF-CEM > 100 µM | SNB-19 > 100 µM | SF-295 > 100 µM | KM12 > 100 µM | A549 > 100 µM | HCT-116 > 100 µM | Malme-3M > 100 µM | SN12C > 100 µM | SK-MEL-2 > 100 µM | UACC-257 > 100 µM | LOX IMVI > 100 µM | OVCAR-4 > 100 µM | HOP-92 > 100 µM | HT-29 > 100 µM | U-251 > 100 µM

O=C(O)c1c([N+](=O)[O-])cc(C(F)(F)F)cc1[N+](=O)[O-]
inactive: CCRF-CEM > 100 µM | SNB-19 > 100 µM | SF-295 > 100 µM | KM12 > 100 µM | A549 > 100 µM | HCT-116 > 100 µM | SN12C > 100 µM | SK-MEL-2 > 100 µM | UACC-257 > 100 µM | LOX IMVI > 100 µM | OVCAR-4 > 100 µM | HOP-92 74.6 µM | HT-29 > 100 µM | U-251 > 100 µM

CCCCOC(=O)CNC(=O)OC/C=C/C#CC#C/C=C/COC(=O)NCC(=O)OCCCC
inactive: CCRF-CEM > 10 µM | SNB-19 > 10 µM | SF-295 > 10 µM | KM12 > 10 µM | A549 > 10 µM | HCT-116 > 10 µM | Malme-3M > 10 µM | SN12C > 10 µM | SK-MEL-2 > 10 µM | UACC-257 > 10 µM | LOX IMVI > 10 µM | OVCAR-4 > 10 µM | HOP-92 > 10 µM | HT-29 > 10 µM | U-251 > 10 µM

O=C(/C(=C/c1ccc(Cl)cc1)c1ccccc1)c1ccccc1
inactive: CCRF-CEM 32.4 µM | SF-295 18.8 µM | KM12 16.9 µM | HCT-116 13.6 µM | Malme-3M 17 µM | SN12C 16.7 µM | SK-MEL-2 20.4 µM | UACC-257 13.6 µM | LOX IMVI 15.4 µM | OVCAR-4 18 µM | HOP-92 13.9 µM | HT-29 18 µM | U-251 17 µM

CC1(c2cccc(N)c2)C2C(=O)NC(=O)C1C(=O)NC2=O (stereo not given)
inactive: CCRF-CEM 22.4 µM | SNB-19 29.2 µM | SF-295 22.4 µM | KM12 23.6 µM | A549 33.9 µM | Malme-3M 31.1 µM | SN12C 29 µM | SK-MEL-2 24.3 µM | UACC-257 37.9 µM | LOX IMVI 28.1 µM | OVCAR-4 36.7 µM | HOP-92 22.9 µM | HT-29 29.4 µM

O=C1OC(=O)C23CSCC12C1C=CC3O1 (stereo not given)
inactive: CCRF-CEM > 100 µM | SNB-19 > 100 µM | SF-295 > 100 µM | KM12 > 100 µM | A549 > 100 µM | HCT-116 > 100 µM | Malme-3M > 100 µM | SN12C > 100 µM | SK-MEL-2 > 100 µM | UACC-257 > 100 µM | LOX IMVI > 100 µM | HT-29 > 100 µM | U-251 > 100 µM

O=C(Cc1ccccc1)N/N=C(/c1nc2ccc([N+](=O)[O-])cc2nc1O)C(O)c1ccccc1Cl (stereo not given)
inactive: CCRF-CEM > 100 µM | SF-295 > 100 µM | KM12 79.3 µM | A549 80.2 µM | HCT-116 > 100 µM | Malme-3M > 100 µM | SN12C > 100 µM | SK-MEL-2 > 100 µM | UACC-257 > 100 µM | LOX IMVI > 100 µM | OVCAR-4 > 100 µM | HOP-92 > 100 µM | HT-29 > 100 µM | U-251 > 100 µM

N#CC1CC2(C1)OCCS2 (stereo not given)
inactive: CCRF-CEM > 100 µM | SNB-19 > 100 µM | SF-295 > 100 µM | KM12 > 100 µM | A549 > 100 µM | HCT-116 > 100 µM | SN12C > 100 µM | SK-MEL-2 > 100 µM | UACC-257 > 100 µM | LOX IMVI > 100 µM | OVCAR-4 > 100 µM | HT-29 > 100 µM | U-251 > 100 µM

C/C(CN1C(=O)c2ccccc2C1=O)=N\NS(=O)(=O)c1cccc([N+](=O)[O-])c1
inactive: CCRF-CEM > 100 µM | SNB-19 > 100 µM | SF-295 > 100 µM | KM12 > 100 µM | A549 > 100 µM | HCT-116 > 100 µM | Malme-3M > 100 µM | SN12C > 100 µM | SK-MEL-2 > 100 µM | UACC-257 > 100 µM | OVCAR-4 > 100 µM | HT-29 > 100 µM | U-251 > 100 µM

CCC1(C(=O)OC)CCc2c(OC)ccc(OC)c2C1=O (stereo not given)
inactive: CCRF-CEM > 100 µM | SNB-19 > 100 µM | SF-295 > 100 µM | KM12 > 100 µM | A549 > 100 µM | HCT-116 > 100 µM | Malme-3M > 100 µM | SN12C > 100 µM | SK-MEL-2 > 100 µM | UACC-257 > 100 µM | LOX IMVI > 100 µM | OVCAR-4 > 100 µM | HT-29 > 100 µM | U-251 > 100 µM

C/C(CCn1[nH]c(=O)ccc1=O)=N\NC(=O)C(N)=O
inactive: SNB-19 > 100 µM | SF-295 > 100 µM | KM12 > 100 µM | A549 > 100 µM | HCT-116 > 100 µM | Malme-3M > 100 µM | SN12C > 100 µM | SK-MEL-2 > 100 µM | UACC-257 > 100 µM | LOX IMVI > 100 µM | OVCAR-4 > 100 µM | HOP-92 > 100 µM | HT-29 > 100 µM | U-251 > 100 µM

CCOC(=O)CCC1(C(=O)OCC)CCCCC1=O (stereo not given)
inactive: CCRF-CEM > 100 µM | SNB-19 > 100 µM | SF-295 > 100 µM | KM12 > 100 µM | A549 > 100 µM | HCT-116 > 100 µM | Malme-3M > 100 µM | SK-MEL-2 > 100 µM | UACC-257 > 100 µM | LOX IMVI > 100 µM | HOP-92 > 100 µM | HT-29 > 100 µM | U-251 > 100 µM

Cc1nc(Nc2ccc([N+](=O)[O-])cc2)sc1C(/C=C/c1ccc(N(C)C)cc1)=N/NC(=O)c1ccccc1
inactive: CCRF-CEM 38.3 µM | SNB-19 62.2 µM | SF-295 56 µM | KM12 36.4 µM | A549 46.5 µM | HCT-116 63.7 µM | Malme-3M 70 µM | SN12C 59.3 µM | SK-MEL-2 92 µM | UACC-257 82.2 µM | LOX IMVI 36.6 µM | OVCAR-4 76 µM | HOP-92 6.82 µM | HT-29 39.1 µM | U-251 56.6 µM

COC(=O)C12C3C4C1C1C2C3C41C(=O)O (stereo not given)
inactive: CCRF-CEM > 100 µM | SNB-19 > 100 µM | SF-295 > 100 µM | A549 > 100 µM | Malme-3M > 100 µM | SN12C > 100 µM | UACC-257 > 100 µM | OVCAR-4 > 100 µM | HOP-92 > 100 µM | HT-29 > 100 µM | U-251 > 100 µM

CCOC(=O)c1cn(Cc2ccccc2)c(=O)n1Cc1ccccc1
inactive: CCRF-CEM 62.8 µM | SNB-19 > 100 µM | SF-295 67.1 µM | KM12 > 100 µM | A549 75 µM | HCT-116 > 100 µM | Malme-3M > 100 µM | SN12C > 100 µM | SK-MEL-2 > 100 µM | UACC-257 > 100 µM | LOX IMVI > 100 µM | OVCAR-4 > 100 µM | HOP-92 > 100 µM | HT-29 > 100 µM | U-251 > 100 µM

CCC12CC[C@H](C#N)N3CCc4c(n(c5ccccc45)C(=O)C1)C32 (stereo not given in full)
inactive: CCRF-CEM 12.3 µM | SNB-19 > 10 µM | SF-295 12.4 µM | KM12 8.17 µM | A549 15.9 µM | HCT-116 13.9 µM | Malme-3M 4.02 µM | SN12C 19.4 µM | SK-MEL-2 14.1 µM | UACC-257 14 µM | LOX IMVI 14.1 µM | OVCAR-4 12.1 µM | HT-29 14.2 µM | U-251 16.3 µM

CC(C)(O)[C@@H]1CC[C@@]2(C)CCCC(O)C2(O)C1 (stereo not given in full)
inactive: CCRF-CEM > 100 µM | SNB-19 > 100 µM | SF-295 > 100 µM | KM12 > 100 µM | A549 > 100 µM | HCT-116 > 100 µM | Malme-3M > 100 µM | SN12C > 100 µM | SK-MEL-2 > 100 µM | UACC-257 > 100 µM | LOX IMVI > 100 µM | OVCAR-4 > 100 µM | HOP-92 > 100 µM | HT-29 > 100 µM | U-251 > 100 µM

COc1cc(C=O)c(-c2cc3c(cc2C=O)OCO3)c(OC)c1OC
inactive: CCRF-CEM 88.1 µM | SNB-19 202 µM | SF-295 70 µM | KM12 59.3 µM | A549 93.8 µM | HCT-116 64.3 µM | Malme-3M 96.6 µM | SN12C 85.9 µM | SK-MEL-2 65.6 µM | UACC-257 123 µM | LOX IMVI 85.7 µM | HOP-92 29.6 µM | HT-29 79.6 µM | U-251 126 µM

COc1cc(C)c(CC/C(C)=C/Cc2cc(O)ccc2O)c(C)c1C [PANICEIN A HYDROQUINONE]
inactive: CCRF-CEM 7.69 µM | SNB-19 > 25 µM | SF-295 > 25 µM | KM12 > 25 µM | A549 > 25 µM | HCT-116 > 25 µM | Malme-3M > 25 µM | SN12C > 25 µM | SK-MEL-2 > 25 µM | OVCAR-4 > 25 µM | HOP-92 > 25 µM | HT-29 > 25 µM | U-251 > 25 µM
